The target in one experiment is T1, Cloned Human Dopamine D3 Receptors (Homo sapiens, UniProt P35462).
T1 construct: expressed in transfected cells; membrane homogenate
T1 sequence (P35462 whole entry): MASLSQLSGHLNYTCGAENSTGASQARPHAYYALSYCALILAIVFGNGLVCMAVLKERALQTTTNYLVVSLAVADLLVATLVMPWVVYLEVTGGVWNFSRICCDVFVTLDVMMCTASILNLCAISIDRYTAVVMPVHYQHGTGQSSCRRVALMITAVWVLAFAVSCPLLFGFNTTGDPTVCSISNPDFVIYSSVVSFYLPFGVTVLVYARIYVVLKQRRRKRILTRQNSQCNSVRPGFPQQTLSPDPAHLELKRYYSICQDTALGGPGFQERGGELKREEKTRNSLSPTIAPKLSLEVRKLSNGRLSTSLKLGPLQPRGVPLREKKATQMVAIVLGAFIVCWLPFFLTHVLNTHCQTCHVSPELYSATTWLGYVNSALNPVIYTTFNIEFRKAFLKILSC
In words: [N-Methyl-3H]Spiroperidol binding to cloned human dopamine D3 receptors. The settings on record: Table 2; unit inferred; read-out: d3Ki. Put shortly:
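[N-methyl-3H]spiroperidol binding is run in Tris buffer, pH 7.7. Receptor source is membranes of a stably transfected, high-expressing CHO clone carrying the human D3 gene, kept at -80°C in 10% DMSO.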
As for `C[C@H]1CC[C@H](NC(=O)CCCN2CCCN(c3csc4cc(F)ccc34)CC2)CC1` [compound 826824], the Ki worked out at 34.2 nM.
`CCOC(=O)[C@H]1CC[C@H](NC(=O)CCCN2CCCN(c3csc4cc(F)ccc34)CC2)CC1` [compound 826825]: the Ki came to 74.9 nM.
As to `CC[C@H]1CC[C@H](NC(=O)CCCN2CCCN(c3csc4cc(F)ccc34)CC2)CC1` [compound 826826], the Ki came to 27.4 nM.
Turning to `CC1CCCC(NC(=O)CCCN2CCCN(c3csc4cc(F)ccc34)CC2)C1` (centres unmarked) [compound 826827], the Ki worked out at 39.5 nM.
The same measure, in the same setting: the same measure for `CCN(C(=O)CCCN1CCCN(c2csc3cc(F)ccc23)CC1)C1CCCCC1` [compound 826829]: 15 nM; for `O=C(CCCN1CCCN(c2csc3cc(F)ccc23)CC1)N(CCO)C1CCCCC1` [compound 826830]: 25.1 nM; for `O=C(CCCN1CCCN(c2csc3cc(F)ccc23)CC1)NC1CCCC1` [compound 826840]: 11 nM.

Still in this experiment, the particulars now being: Table 2 part the 10th table; read-out: d3Ki.
On to `NC(=O)C1CCN(C(=O)[C@@H]2C[C@H]2CN2CCN(c3csc4cc(C(F)(F)F)ccc34)CC2)CC1` [compound 826661], for which the Ki amounted to 25 nM.
On to `O=C([C@@H]1C[C@H]1CN1CCN(c2csc3cc(C(F)(F)F)ccc23)CC1)N1CCC(Cc2ccccc2)CC1` [compound 826662], for which the Ki was determined as 69 nM.
As for `O=C([C@@H]1C[C@H]1CN1CCN(c2csc3cc(F)ccc23)CC1)N1CCCC1` [compound 826669], the Ki is 0.24 nM.
`CCOC(=O)C1CN(C(=O)[C@@H]2C[C@H]2CN2CCN(c3csc4cc(F)ccc34)CC2)CCC1=O` (some centres unmarked) [compound 826671]: the Ki was found to be 6.8 nM.
Take `O=C([C@@H]1C[C@H]1CN1CCN(c2csc3cc(F)ccc23)CC1)N1CCC(Cc2ccccc2)CC1` [compound 826673]: the Ki amounted to 7.9 nM.
Still for that read-out and setting: then `N#CC1(c2ccccc2)CCN(C(=O)[C@@H]2C[C@H]2CN2CCN(c3csc4cc(F)ccc34)CC2)CC1` [compound 826674], with 48 nM; and `CC1CCCC(C)N1C(=O)[C@@H]1C[C@H]1CN1CCN(c2csc3cc(F)ccc23)CC1` (some centres unmarked) [compound 826675], with 8 nM.
Take `O=C([C@@H]1C[C@H]1CN1CCN(c2csc3cc(F)ccc23)CC1)N1CCCCC1` [compound 826676]: the Ki was determined as 2 nM.
`O=C([C@@H]1C[C@H]1CN1CCCN(c2csc3cc(C(F)(F)F)ccc23)CC1)N1CCCC1` [compound 826683]: the Ki stood at 3.7 nM.
With `CCOC(=O)C1CN(C(=O)C2CC2CN2CCCN(c3csc4cc(C(F)(F)F)ccc34)CC2)CCC1=O` (centres unmarked) [compound 826685], the Ki was 154 nM.
In the case of `O=C([C@@H]1C[C@H]1CN1CCCN(c2csc3cc(C(F)(F)F)ccc23)CC1)N1CCC(O)CC1` [compound 826686], the Ki turned out to be 26 nM.
As for `NC(=O)C1CCN(C(=O)[C@@H]2C[C@H]2CN2CCCN(c3csc4cc(C(F)(F)F)ccc34)CC2)CC1` [compound 826687], the Ki turned out to be 132 nM.
As to `O=C([C@@H]1C[C@H]1CN1CCCN(c2csc3cc(C(F)(F)F)ccc23)CC1)N1CCC(Cc2ccccc2)CC1` [compound 826688], the Ki worked out at 217 nM.
For the compound `N#CC1(c2ccccc2)CCN(C(=O)[C@@H]2C[C@H]2CN2CCCN(c3csc4cc(C(F)(F)F)ccc34)CC2)CC1` [compound 826689], the Ki was determined as 674 nM.
For the compound `O=C([C@@H]1C[C@H]1CN1CCCN(c2csc3cc(C(F)(F)F)ccc23)CC1)N1CCOCC1` [compound 826691], the Ki was found to be 35 nM.
On the same count and under the same terms, then `CCOC(=O)C1CCN(C(=O)CCCN2CCCN(c3csc4cc(F)ccc34)CC2)CC1` [compound 826831], with 2.55 nM; and `O=C(CCCN1CCCN(c2csc3cc(F)ccc23)CC1)N1CCC(O)CC1` [compound 826832], with 16.1 nM; and `CC1CCCCN1C(=O)CCCN1CCCN(c2csc3cc(F)ccc23)CC1` (centres unmarked) [compound 826833], with 0.872 nM.
`CC1CCN(C(=O)CCCN2CCCN(c3csc4cc(F)ccc34)CC2)CC1` [compound 826834]: the Ki turned out to be 8.01 nM.
On the same count and under the same terms, then `CC1CCCN(C(=O)CCCN2CCCN(c3csc4cc(F)ccc34)CC2)C1` (centres unmarked) [compound 826835], with 2.12 nM.
With `O=C(CCCN1CCCN(c2csc3cc(F)ccc23)CC1)N1CCC(N2CCCC2)CC1` [compound 826836], the Ki is 2.23 nM.
As for `CC1(C)CCCN(C(=O)CCCN2CCCN(c3csc4cc(F)ccc34)CC2)C1` [compound 826837], the Ki amounted to 8.8 nM.
Same read-out and setting: the same measure for `CC1CC(C)CN(C(=O)CCCN2CCCN(c3csc4cc(F)ccc34)CC2)C1` (centres unmarked) [compound 826838]: 14.6 nM.
For `O=C(CCCN1CCCN(c2csc3cc(F)ccc23)CC1)N1CCCC1` [compound 826839], the Ki was determined as 9.37 nM.
With `CC1CCCN1C(=O)CCCN1CCCN(c2csc3cc(F)ccc23)CC1` (centres unmarked) [compound 826842], the Ki stood at 3.66 nM.
`CN(C)C1CCN(C(=O)CCCN2CCCN(c3csc4cc(F)ccc34)CC2)C1` (centres unmarked) [compound 826843]: the Ki turned out to be 126 nM.
For `CN(C)C1CCN(C(=O)CCCN2CCN(c3csc4cc(F)ccc34)CC2)C1` (centres unmarked) [compound 826863], the Ki was 26.6 nM.
For the compound `CCOC(=O)C1CCN(C(=O)[C@@H]2C[C@H]2CN2CCCN(c3csc4cc(F)ccc34)CC2)CC1` [compound 826871], the Ki is 10.7 nM.
As for `CC1CCCCN1C(=O)[C@@H]1C[C@H]1CN1CCCN(c2csc3cc(F)ccc23)CC1` (some centres unmarked) [compound 826873], the Ki turned out to be 1.31 nM.
With `CC1CCN(C(=O)[C@@H]2C[C@H]2CN2CCCN(c3csc4cc(F)ccc34)CC2)CC1` [compound 826874], the Ki turned out to be 1.72 nM.
Regarding `CC1CCCN(C(=O)[C@@H]2C[C@H]2CN2CCCN(c3csc4cc(F)ccc34)CC2)C1` (some centres unmarked) [compound 826875], the Ki stood at 2.79 nM.
In the case of `O=C([C@@H]1C[C@H]1CN1CCCN(c2csc3cc(F)ccc23)CC1)N1CCC(N2CCCC2)CC1` [compound 826876], the Ki is 2.72 nM.
The same measure, in the same setting: the same measure for `CC1(C)CCCN(C(=O)[C@@H]2C[C@H]2CN2CCCN(c3csc4cc(F)ccc34)CC2)C1` [compound 826877]: 4.72 nM.
Consider `CC1CC(C)CN(C(=O)[C@@H]2C[C@H]2CN2CCCN(c3csc4cc(F)ccc34)CC2)C1` (some centres unmarked) [compound 826878], for which the Ki was 7.95 nM.
In the case of `O=C([C@@H]1C[C@H]1CN1CCCN(c2csc3cc(F)ccc23)CC1)N1CCCC1` [compound 826879], the Ki is 1.59 nM.
As for `CC1CCCN1C(=O)[C@@H]1C[C@H]1CN1CCCN(c2csc3cc(F)ccc23)CC1` (some centres unmarked) [compound 826882], the Ki was found to be 2.93 nM.

The same experiment, now with this note: d3Ki, Table 2 part the 10th table.
`O=C([C@@H]1C[C@H]1CN1CCN(c2csc3cc(C(F)(F)F)ccc23)CC1)N1CCC(N2CCCC2)CC1` [compound 826664] had a Ki of 9.4 nM.
`O=C([C@@H]1C[C@H]1CN1CCN(c2csc3cc(F)ccc23)CC1)N1CCC(O)CC1` [compound 826672]: the Ki worked out at 0.64 nM.

The experiment is the same for the next values; noted with them: read-out: d3Ki.
As to `C[C@H]1CC[C@H](NC(=O)[C@@H]2C[C@H]2CN2CCN(c3csc4cc(F)ccc34)CC2)CC1` [compound 826665], the Ki was 1.9 nM.
As to `COC(=O)[C@H]1CC[C@H](NC(=O)[C@@H]2C[C@H]2CN2CCN(c3csc4cc(F)ccc34)CC2)CC1` [compound 826666], the Ki was found to be 6.3 nM.
With `CC[C@H]1CC[C@H](NC(=O)[C@@H]2C[C@H]2CN2CCN(c3csc4cc(F)ccc34)CC2)CC1` [compound 826667], the Ki amounted to 2.5 nM.
`O=C(NC1CCCCCCCC1)[C@@H]1C[C@H]1CN1CCN(c2csc3cc(F)ccc23)CC1` [compound 826668]: the Ki turned out to be 3.9 nM.
As for `O=C(NC1CCCC1)[C@@H]1C[C@H]1CN1CCN(c2csc3cc(F)ccc23)CC1` [compound 826670], the Ki was found to be 4.2 nM.
In the case of `O=C(NC1CCCCC1)[C@@H]1C[C@H]1CN1CCN(c2csc3cc(F)ccc23)CC1` [compound 826677], the Ki was 2.3 nM.
Turning to `CCOC(=O)[C@H]1CC[C@H](NC(=O)[C@@H]2C[C@H]2CN2CCCN(c3csc4cc(C(F)(F)F)ccc34)CC2)CC1` [compound 826679], the Ki is 9.1 nM.
For the compound `CC[C@H]1CC[C@H](NC(=O)[C@@H]2C[C@H]2CN2CCCN(c3csc4cc(C(F)(F)F)ccc34)CC2)CC1` [compound 826680], the Ki amounted to 58 nM.
On to `O=C(NC1CCCCCCCC1)[C@@H]1C[C@H]1CN1CCCN(c2csc3cc(C(F)(F)F)ccc23)CC1` [compound 826681], for which the Ki was determined as 48 nM.
On the same count and under the same terms, then `O=C(NCCN1CCOCC1)[C@@H]1C[C@H]1CN1CCCN(c2csc3cc(C(F)(F)F)ccc23)CC1` [compound 826682], with 103 nM.
On to `O=C(NC1CCCC1)[C@@H]1C[C@H]1CN1CCCN(c2csc3cc(C(F)(F)F)ccc23)CC1` [compound 826684], for which the Ki was 7.9 nM.
As to `C[C@H]1CC[C@H](NC(=O)[C@@H]2C[C@H]2CN2CCCN(c3csc4cc(F)ccc34)CC2)CC1` [compound 826864], the Ki was 2.16 nM.
Consider `CCOC(=O)[C@H]1CC[C@H](NC(=O)[C@@H]2C[C@H]2CN2CCCN(c3csc4cc(F)ccc34)CC2)CC1` [compound 826865], for which the Ki is 3.68 nM.
On to `CC[C@H]1CC[C@H](NC(=O)[C@@H]2C[C@H]2CN2CCCN(c3csc4cc(F)ccc34)CC2)CC1` [compound 826866], for which the Ki came out at 1.24 nM.
In the case of `CC1CCCC(NC(=O)[C@@H]2C[C@H]2CN2CCCN(c3csc4cc(F)ccc34)CC2)C1` (some centres unmarked) [compound 826867], the Ki was found to be 1.89 nM.
Turning to `CN(C(=O)[C@@H]1C[C@H]1CN1CCCN(c2csc3cc(F)ccc23)CC1)C1CCCCC1` [compound 826868], the Ki is 3.49 nM.
As for `CCN(C(=O)[C@@H]1C[C@H]1CN1CCCN(c2csc3cc(F)ccc23)CC1)C1CCCCC1` [compound 826869], the Ki came to 6.75 nM.
Consider `O=C([C@@H]1C[C@H]1CN1CCCN(c2csc3cc(F)ccc23)CC1)N(CCO)C1CCCCC1` [compound 826870], for which the Ki came to 7.4 nM.
For `O=C(NC1CCCC1)[C@@H]1C[C@H]1CN1CCCN(c2csc3cc(F)ccc23)CC1` [compound 826880], the Ki is 2.86 nM.
As for `O=C(NC1CCCCC1)[C@@H]1C[C@H]1CN1CCCN(c2csc3cc(F)ccc23)CC1` [compound 826881], the Ki is 2.38 nM.
